From patent US8173689B2 (Novartis AG, priority 2006, dated 2012)
Read-outs that look alike come from different tables or passages of the source.

Key:
[1] = biological target: T1, full-length human CSF-1R receptor (Homo sapiens, UniProt P07333); test: In vitro inhibition of CSF-1R receptor tyrosine phosphorylation in transfected HEK293H cells stimulated with MCSF; type: cell-based; conditions: HEK293-H, tested at about 1 μM, read-out: pCSF1R percent inhibition
T1 construct: transfected with the full-length human CSF-1R receptor cloned in house; expressed in transfected cells; host or cells: HEK293H (Invitrogen Cat. #11631017)
T1 sequence (P07333 20-972): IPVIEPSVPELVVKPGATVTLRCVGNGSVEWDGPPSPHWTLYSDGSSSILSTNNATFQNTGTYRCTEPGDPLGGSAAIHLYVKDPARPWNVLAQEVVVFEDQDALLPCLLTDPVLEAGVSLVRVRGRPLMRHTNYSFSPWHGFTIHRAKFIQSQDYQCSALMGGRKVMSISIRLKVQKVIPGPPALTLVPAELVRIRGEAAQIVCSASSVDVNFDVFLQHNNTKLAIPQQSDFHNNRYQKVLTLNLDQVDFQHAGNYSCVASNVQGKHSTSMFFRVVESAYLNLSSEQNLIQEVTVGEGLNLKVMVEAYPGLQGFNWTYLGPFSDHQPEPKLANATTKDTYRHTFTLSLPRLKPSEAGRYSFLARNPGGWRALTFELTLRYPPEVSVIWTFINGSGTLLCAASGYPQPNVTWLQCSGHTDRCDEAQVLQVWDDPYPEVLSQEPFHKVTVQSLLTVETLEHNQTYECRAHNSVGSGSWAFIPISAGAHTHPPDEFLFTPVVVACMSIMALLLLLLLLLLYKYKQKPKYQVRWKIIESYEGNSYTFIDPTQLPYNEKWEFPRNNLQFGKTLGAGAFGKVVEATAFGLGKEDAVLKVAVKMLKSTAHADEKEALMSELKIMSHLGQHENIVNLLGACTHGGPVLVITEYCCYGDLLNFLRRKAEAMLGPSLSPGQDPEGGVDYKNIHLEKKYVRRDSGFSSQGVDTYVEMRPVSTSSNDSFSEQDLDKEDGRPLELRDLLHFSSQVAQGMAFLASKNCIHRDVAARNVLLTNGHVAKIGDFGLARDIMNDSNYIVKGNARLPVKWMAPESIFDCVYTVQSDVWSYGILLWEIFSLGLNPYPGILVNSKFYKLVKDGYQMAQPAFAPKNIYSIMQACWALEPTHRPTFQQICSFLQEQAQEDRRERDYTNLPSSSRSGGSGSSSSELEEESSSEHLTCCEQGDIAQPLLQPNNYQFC
Protocol: The lysate was then transferred to total CSF-1R antibody coated 96-well plates that had already been blocked with 3% Blocker A from Mesoscale discovery (MSD) for 2 hours and washed afterwards. Lysates were incubated overnight at 4° C. and the plates were then washed 4× with MSD Tris Wash Buffer. […] The plates were read on the Sector 6000 instrument (MSD). Raw data was imported in Abase and EC50s calculated with XL-fit data analysis software.

[2] = biological target: T2, kinase domain of cKIT (Homo sapiens, UniProt P10721); test: Inhibition of cKIT kinase signaling in an in vitro biochemical assay (alphascreen); conditions: tested at about 1 μM, read-out: cKit percent inhibition
T2 construct: The kinase domain of cKIT was assayed in 50 mM Hepes; purchased Upstate 14-559
T2 sequence (P10721 589-937 limits assumed): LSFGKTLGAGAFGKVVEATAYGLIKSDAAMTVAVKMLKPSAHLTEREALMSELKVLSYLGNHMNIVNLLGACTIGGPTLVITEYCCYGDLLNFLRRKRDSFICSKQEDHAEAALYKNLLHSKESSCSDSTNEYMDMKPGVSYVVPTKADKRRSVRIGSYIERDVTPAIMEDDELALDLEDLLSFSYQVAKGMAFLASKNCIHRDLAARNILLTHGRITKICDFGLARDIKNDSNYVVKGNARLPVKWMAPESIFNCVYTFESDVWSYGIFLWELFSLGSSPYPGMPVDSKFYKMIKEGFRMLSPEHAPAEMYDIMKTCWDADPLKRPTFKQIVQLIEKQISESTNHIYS

[3] = system: MNFS60 (murine AML cells); test: Cell viability assay in MCSF dependent MNFS60 cells (Cell Titer Glo); type: cell-based; conditions: Mus musculus, tested at about 1 μM, read-out: M-NFS-60 CP percent inhibition
Procedure, shortened: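 Three-fold serial compound dilutions, prepared in DMSO at 500× the final level, were applied alongside MCSF (final 10 ng/ml). Incubation lasted 72 hrs (37° C., 5% CO2) before CellTiter-Glo addition. Triplicate points were curve-fitted for EC50.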

[4] = biological target: T3, kinase domain of PDGFRβ (Homo sapiens, UniProt P09619); test: Inhibition of PDGFRb kinase signaling in an in vitro biochemical assay (alphascreen); conditions: tested at about 1 μM, read-out: PDGFRβ percent inhibition
T3 construct: The kinase domain of PDGFRβ was assayed in 50 mM Hepes; purchased Invitrogen P3082
T3 sequence (P09619 600-962 limits assumed): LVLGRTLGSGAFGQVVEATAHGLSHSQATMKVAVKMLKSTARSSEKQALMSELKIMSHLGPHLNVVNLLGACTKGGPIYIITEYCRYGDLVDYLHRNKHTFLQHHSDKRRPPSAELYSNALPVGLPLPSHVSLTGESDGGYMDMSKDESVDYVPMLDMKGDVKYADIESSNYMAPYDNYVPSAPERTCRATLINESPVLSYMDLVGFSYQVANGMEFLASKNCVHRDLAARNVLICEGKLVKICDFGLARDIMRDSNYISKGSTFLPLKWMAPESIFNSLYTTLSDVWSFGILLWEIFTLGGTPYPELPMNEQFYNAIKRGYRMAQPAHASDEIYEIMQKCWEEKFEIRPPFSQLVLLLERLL

[5] = biological target: T4, cytoplasmic domain of the human CSF-1R (Homo sapiens, UniProt P07333); test: In vitro kinase assay for colony stimulating factor-1 receptor (AlphaScreen); type: biochemical; conditions: tested at about 1 μM, read-out: CSF-1R percent inhibition
T4 construct: Recombinant protein corresponding to the cytoplasmic domain of the human CSF-1R; purchased Invitrogen Corporation, Carlsbad, Calif; PV3249
T4 sequence (P07333 539-972 limits assumed): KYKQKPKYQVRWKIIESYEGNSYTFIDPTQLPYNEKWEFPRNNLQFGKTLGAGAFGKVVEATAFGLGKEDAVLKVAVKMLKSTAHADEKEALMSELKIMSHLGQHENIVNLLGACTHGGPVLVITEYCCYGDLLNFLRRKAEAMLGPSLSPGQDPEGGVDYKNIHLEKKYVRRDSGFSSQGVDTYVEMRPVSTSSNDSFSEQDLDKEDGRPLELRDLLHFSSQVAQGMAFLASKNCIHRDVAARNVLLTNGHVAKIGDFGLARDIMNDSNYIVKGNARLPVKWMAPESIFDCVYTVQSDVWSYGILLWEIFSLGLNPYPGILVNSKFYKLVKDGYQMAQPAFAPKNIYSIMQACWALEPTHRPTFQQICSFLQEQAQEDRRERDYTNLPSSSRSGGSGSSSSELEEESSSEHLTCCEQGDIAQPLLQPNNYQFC
Procedure, shortened: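 Test compounds, serially diluted threefold starting at 25 μM, were mixed with Hepes buffer (pH 7.5, Mg2+/Mn2+, DTT, BSA, Tween 80) containing 1 μM ATP. Recombinant kinase was present at 4 nM. After stopping, beads were added and plates were read the next day by AlphaScreen.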

Row | inhibition at 1 µM ([1]; compounds of Table 3) [%] | inhibition at 1 µM ([2]; compounds of Table 3) [%] | inhibition at 1 µM ([4]; compounds of Table 3) [%] | inhibition at 1 µM ([5]; compounds of Table 3) [%] | inhibition at 1 µM ([1]; HEK293H cells) [%] | inhibition at 1 µM [2] [%] | inhibition at 1 µM [4] [%] | inhibition at 1 µM [5] [%] | inhibition at 1 µM ([1]; compounds of Table 4) [%] | inhibition at 1 µM ([2]; compounds of Table 4) [%] | inhibition at 1 µM ([4]; compounds of Table 4) [%] | inhibition at 1 µM ([5]; compounds of Table 4) [%] | Compound | inhibition at 1 µM ([3]; compounds of Table 3) [%] | inhibition at 1 µM ([3]; MNFS60 cells) [%] | inhibition at 1 µM ([3]; compounds of Table 4) [%]
1 | 96 | 28 | 23 | 100 | – | – | – | – | – | – | – | – | COc1ccc(-c2cc(Oc3ccc4nc(N[C@@H]5CCCC[C@H]5O)sc4c3)ccn2)cn1 [Cmpd 170, (1R,2R)-2-(6-(6'-methoxy-2,3'-bipyridin-4-yloxy)benzo[d]thiazol-2-ylamino)cyclohexanol] | 100 | – | –
2 | 95 | 25 | 18 | 100 | – | – | – | – | – | – | – | – | O[C@@H]1CCCC[C@H]1Nc1nc2ccc(Oc3ccnc(-c4ccnc(F)c4)c3)cc2s1 [Cmpd 171, (1R,2R)-2-(6-(2'-fluoro-2,4'-bipyridin-4-yloxy)benzo[d]thiazol-2-ylamino)cyclohexanol] | 96 | – | –
3 | 97 | 22 | 18 | 100 | – | – | – | – | – | – | – | – | O[C@@H]1CCCC[C@H]1Nc1nc2ccc(Oc3ccnc(-c4ccnc(N5CCOCC5)c4F)c3)cc2s1 [Cmpd 172, (1R,2R)-2-(6-(3'-fluoro-2'-morpholino-2,4'-bipyridin-4-yloxy)benzo[d]thiazol-2-ylamino)cyclohexanol] | 100 | – | –
4 | 81 | 18 | 8 | 100 | – | – | – | – | – | – | – | – | O[C@@H]1CCCC[C@H]1Nc1nc2ccc(Oc3ccnc(-c4ccc(F)nc4)c3)cc2s1 [Cmpd 173, (1R,2R)-2-(6-(6'-fluoro-2,3'-bipyridin-4-yloxy)benzo[d]thiazol-2-ylamino)cyclohexanol] | 52 | – | –
5 | – | – | – | – | 94 | 85 | 10 | 100 | – | – | – | – | CNC(=O)c1cc(Oc2ccc3nc(NCc4ccccc4OC)oc3c2)ccn1 [Compound 17, 4-[2-(2-Methoxy-benzylamino)-benzooxazol-6-yloxy]-pyridine-2-carboxylic acid methylamide] | – | 81 | –
6 | 93 | 45 | 11 | 100 | – | – | – | – | – | – | – | – | CNC(=O)c1cc(Oc2ccc3nc(Nc4cccc(OC)c4)sc3c2)ccn1 [Compound 32] | 65 | – | –
7 | – | – | – | – | 83 | – | 35 | 98 | 98 | 65 | 0 | 100 | CNC(=O)c1cc(Oc2ccc3nc(NCc4cc(F)ccc4F)oc3c2)ccn1 [Compound 33, 4-[2-(2,5-Difluoro-benzylamino)-benzooxazol-6-yloxy]-pyridine-2-carboxylic acid methylamide] | – | 35 | 100
8 | 99 | 87 | 98 | 100 | – | – | 15 | 37 | 53 | 45 | 24 | 100 | CNC(=O)c1cc(Oc2ccc3nc(Nc4ccccc4CCN4CCCCC4)oc3c2)ccn1 [Compound 44, 4-{2-[2-(2-Piperidin-1-yl-ethyl)-phenylamino]-benzooxazol-6-yloxy}-pyridine-2-carboxylic acid methylamide] | 100 | – | 94
9 | 83 | 0 | 4 | 100 | – | – | 12 | 13 | 79 | 55 | 31 | 100 | CNC(=O)c1cc(Oc2ccc3nc(Nc4ccccc4-n4ccnc4C)oc3c2)ccn1 [Compound 47, 4-{2-[2-(2-Methyl-imidazol-1-yl)-phenylamino]-benzooxazol-6-yloxy}-pyridine-2-carboxylic acid methylamide] | 55 | – | 58
10 | – | 13 | 14 | 99 | – | 59 | 8 | 56 | 99 | 10 | 14 | 100 | CNC(=O)c1cc(Oc2ccc3nc(N[C@@H]4c5ccccc5C[C@@H]4O)oc3c2)ccn1 [Compound 50, 4-[2-((1R,2S)-2-Hydroxy-indan-1-ylamino)-benzooxazol-6-yloxy]-pyridine-2-carboxylic acid methylamide] | 18 | – | 100
11 | – | – | – | – | 71 | 12 | 50 | 100 | – | – | – | – | CNC(=O)c1cc(Oc2ccc3nc(N[C@H]4CCCC[C@@H]4O)oc3c2)ccn1 [Compound 52, 4-[2-((1S,2S)-2-Hydroxy-cyclohexylamino)-benzooxazol-6-yloxy]-pyridine-2-carboxylic acid methylamide] | – | 56 | –
12 | – | – | – | – | 60 | 17 | 7 | 100 | – | – | – | – | CNC(=O)c1cc(Oc2ccc3nc(N[C@H](C)C4CCCCC4)oc3c2)ccn1 [Compound 54, 4-[2-((R)-1-Cyclohexyl-ethylamino)-benzooxazol-6-yloxy]-pyridine-2-carboxylic acid methylamide] | – | 64 | –
13 | – | – | – | – | – | – | – | – | 95 | 11 | 0 | 100 | COCCn1cc(-c2cc(Oc3ccc4nc(N[C@@H]5c6ccccc6C[C@@H]5O)sc4c3)ccn2)cn1 [Compound 58] | – | – | 100
14 | – | – | – | – | 97 | 98 | 38 | 99 | – | – | – | – | CNC(=O)c1cc(Oc2ccc3nc(NCc4cccc5c4OCCO5)oc3c2)ccn1 [Compound 65, 4-{2-[(2,3-Dihydro-benzo-[1,4]dioxin-5-ylmethyl)-amino]-benzooxazol-6-yloxy}-pyridine-2-carboxylic acid methylamide] | – | 100 | –
15 | – | – | – | – | 37 | 55 | 37 | 100 | – | – | – | – | CNC(=O)c1cc(Oc2ccc3nc(N[C@H](CO)C4CCCCC4)oc3c2)ccn1 [Compound 66, 4-[2-((S)-1-Cyclohexyl-02-hydroxy-ethylamino)-benzo-oxazol-6-yloxy]-pyridine-2-carboxylic acid methylamide] | – | 18 | –
16 | – | – | – | – | 0 | 8 | 1 | 97 | – | – | – | – | CNC(=O)c1cc(Oc2ccc3nc(N[C@@H](CO)C4CCCCC4)oc3c2)ccn1 [Compound 67, 4-[2-((R)-1-Cyclohexyl-2-hydroxy-ethylamino)-benzo-oxazol-6-yloxy]-pyridine-2-carboxylic acid methylamide] | – | 10 | –
17 | – | – | – | – | 94 | 92 | 15 | 100 | – | – | – | – | CNC(=O)c1cc(Oc2ccc3nc(NCc4cccc(Cl)c4Cl)oc3c2)ccn1 [Compound 77, 4-[2-(2,3-Dichloro-benzylamino)-benzooxazol-6-yloxy]-pyridine-2-carboxylic acid methylamide] | – | 79 | –
